Measurements as given in patent publication US5516779A, “17β-substituted-6-azasteroid derivatives useful as 5α-reductase inhibitors” (Merck & Co., Inc., priority 1994, dated 1996).
Where two headings read alike, the source gives them in different places.

Target: T1, 5α-reductase type 1 (Homo sapiens, UniProt P18405)
T1 construct: Samples of human tissue were pulverized using a freezer mill and homogenized; from tissue; host or cells: human scalp tissue, crude nuclear pellet
T1 sequence (P18405 1-259): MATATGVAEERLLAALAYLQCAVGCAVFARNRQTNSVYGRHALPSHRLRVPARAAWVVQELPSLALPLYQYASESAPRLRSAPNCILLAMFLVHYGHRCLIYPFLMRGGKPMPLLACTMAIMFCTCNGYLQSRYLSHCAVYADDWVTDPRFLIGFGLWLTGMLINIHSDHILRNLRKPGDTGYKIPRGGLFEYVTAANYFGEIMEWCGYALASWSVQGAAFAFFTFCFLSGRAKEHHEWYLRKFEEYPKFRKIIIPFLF
Assay: Inhibition of 5α-reductase type 1 (conversion of testosterone to DHT, human scalp homogenate)
Format: biochemical
Procedure: Samples of human tissue were pulverized using a freezer mill and homogenized in 40 mM potassium phosphate, pH 6.5, 5 mM magnesium sulfate, 25 mM potassium chloride, 1 mM phenylmethylsulfonyl fluoride, 1 mM dithiothreitol (DTT) containing 0.25 M sucrose using a Potter-Elvehjem homogenizer. A crude nuclear pellet was prepared by centrifugation of the homogenate at 1,500 x g for 15 min. The crude nuclear pellet was washed two times and resuspended in two volumes of buffer. Glycerol was added to the resuspended pellet to a final concentration of 20%. The enzyme suspension was frozen in aliquots at -80° C. The prostatic and scalp reductases were stable for at least 4 months when stored under these conditions.
The reaction mixture for the type 1 5α-reductase contained 40 mM potassium phosphate, pH 6.5, […] [7-^3 H]-testosterone, 1 mM dithiothreitol and 500 µM NADPH in a final volume of 100 μl. The reaction mixture for the type 2 5α-reductase contained 40 mM sodium citrate, pH 5.5, 0.3 mM [7-^3 H]-testosterone, 1 mM dithiothreitol and 500 µM NADPH in a final volume of 100 μl. Typically, the assay was initiated by the addition of 50-100 μg prostatic homogenate or 75-200 μg scalp homogenate and incubated at 37° C. After 10-50 min. the reaction was quenched by extraction with 250 μl of a mixture of 70% cyclohexane: 30% ethyl acetate containing 10 μl each DHT and T. The aqueous and organic layers were separated by centrifugation at 14,000 rpm in an Eppendorf microfuge. The organic layer was subjected to normal phase HPLC (10 cm Whatman partisil 5 silica column equilibrated in 1 ml/min 70% cyclohexane: 30% ethyl acetate; retention times: DHT, 6.8-7.2 min.; androstanediol, 7.6-8.0 min.; T, 9.1-9.7 min.). The HPLC system consisted of a Waters Model 680 Gradient System equipped with a Hitachi Model 655α autosampler, Applied Biosystems Model 757 -variable UV detector, and a Radiomatic Model A120 radioactivity analyzer. The conversion of T to DHT was monitored using the radioactivity flow detector by mixing the HPLC effluent with one volume of Flo Scint 1 (Radiomatic). Under the conditions described, the production of DHT was linear for at least 25 min. The only steroids observed with the human prostate and scalp preparations were T, DHT and androstanediol.
Compounds were dissolved in 100% ethanol. The compound to be tested was pre-incubated with the enzyme (either 5α-reductase type 1 or 2) prior to initiation by addition of substrate testosterone. IC50 values represent the concentration of inhibitor required to decrease enzyme conversion of testosterone to dihydrotestosterone by 50% of the control. IC50 values were determined using a 6 point titration where the concentration of the inhibitor was varied from 0.1 to 1000 nM. Representative compounds of this invention were tested in the above described assay for 5α-reductase type 1 and type 2 inhibition.

[1] = 5α-reductase type 1, pH 6.5, 6 point titration, 0.1 to 1000 nM, "under about", read-out: IC50 for inhibition of the type 1 isozyme

| SMILES | IC50 [1] [nM] | IC50 [nM] |
| --- | --- | --- |
| CN1C[C@H]2[C@@H]3CC[C@H](O)[C@@]3(C)CC[C@@H]2[C@@]2(C)CCC(=O)C=C12 [XIII, 6-methyl-17-hydroxy-6-aza-androst-4-en-3-one] | – | < 100 |
| CN1C[C@H]2[C@@H]3CC[C@H](OC(=O)NC(C)(C)C)[C@@]3(C)CC[C@@H]2[C@@]2(C)CCC(=O)C=C12 [XIV, 6-methyl-17-t-butylcarbamoyloxy-6-aza-androst-4-en-3-one] | < 100 | – |
| CC(C)CCC[C@@H](C)[C@H]1CC[C@H]2[C@@H]3CNC4=CC(=O)CC[C@]4(C)[C@H]3CC[C@]12C [XV, 6-aza-cholest-4-en-3-one] | < 100 | – |
| CC(C)CCC[C@@H](C)[C@H]1CC[C@H]2[C@@H]3CN(C)C4=CC(=O)CC[C@]4(C)[C@H]3CC[C@]12C [XVI, 6-methyl-6-aza-cholest-4-en-3-one] | < 100 | – |

The next lines start with results.

| IC50 [1] [nM] | SMILES | IC50 [nM] |
| --- | --- | --- |
| < 100 | CN1C[C@@H]2[C@H](CC[C@]3(C)C(=O)CC[C@@H]23)[C@@]2(C)CCC(=O)C=C12 [VII, 6-methyl-6-aza-androst-4-en-3,17-dione] | – |
| < 100 | CCC[C@H]1CC[C@H]2[C@@H]3CN(C)C4=CC(=O)CC[C@]4(C)[C@H]3CC[C@]12C [X, 6-methyl-17-propyl-6-aza-androst-4-en-3-one] | – |
| < 100 | CN1C[C@H]2[C@@H]3CCC[C@@]3(C)CC[C@@H]2[C@@]2(C)CCC(=O)C=C12 [XII, 6-methyl-6-aza-androst-4-en-3-one] | – |
